Results: US20210071180A1, “MICRORNA 584-5P COMPOSITIONS AND METHODS FOR TREATING CANCER” (BOARD OF REGENTS, THE UNIVERSY OF TEXAS SYSTEM, priority 2018, published 2021)

Tests used:
Type in all cases: cell-based
eIF4E1 = assay: Western blot analysis of eIF4E1; conditions: MB cells
Description: Next, it was determined whether miR-584-5p and its target genes, eIF4E3 and HDAC1, show reciprocal expression pattern in MB. […] In FIG. 16A, data represent Log 2 ratio tumor/cerebellum control. Data mined from GSE42657. In FIG. 16B, data represent Log 2 ratio tumor/cerebellum control. Data mined from GSE28245. To further confirm those results, miR-584-5p expression in MB patient-derived xenografts was examined. […] The p-values were calculated using one-way ANOVA followed by Sidak's multiple-comparisons test. Error bars represent mean±SEM. To further confirm the specificity of miR-584-5p-eIF4E3 signaling axis in MB, the expression of eIF4E1, which acts as an oncogene in several cancers (Bhat, M. et al. Nat Rev Drug Discov 14, 261-278, (2015)), was tested in miR-584-5p treated cells.

[1] = system: activated CHK1, ATR, BRCA1; assay: Western blot of checkpoint proteins; conditions: miR-584-5p mimic-transfected MB cells
Description: FIG. 13C-D show representative immunofluorescence images showing 53BP1 foci in D556Med cells transfected with miR-NC or miR-584-5p mimic (C) or scramble-siRNA or eIF4E3/HDAC1-siRNAs (D) and treated with or without 10 Gy of IR.
Immunofluorescence and Western blot analysis Immunofluorescence analyses was carried out on cells fixed in 4% paraformaldehyde (Imam, J. S. et al. PLoS One 7, e52397, (2012)). Western blot analysis was performed on cell extracts from miR-584-5p mimic- or target gene siRNA-transfected MB cell lines in accordance with previously reported studies (Rajamanickam, S. et al. Clin Cancer Res 22, 3524-3536, (2016); and Imam, J. S. et al. PLoS One 7, e52397, (2012). Antibodies against horseradish peroxidase-conjugated β-actin (1:50,000; #A5316), β-tubulin (#T8328), and glyceraldehyde-3-phosphate dehydrogenase (GAPDH) (1:25,000; #G9295) were purchased from Sigma-Aldrich. Antibody against eIF4E3 (1:1000; #17282-1-AP) was purchased from Proteintech. Antibodies against HDAC1 (1:1000; #5356), pCHK1 (1:1000; #2348), and CHK1 (1:1000; #2360) were purchased from Cell Signaling Technology (Danvers, Mass., USA). Antibodies against MYC (1:1000; #Sc-40), BRCA1 (1:1000; #6954), and ATR (1:1000; #sc-515173) were purchased from Santa Cruz. Antibody against 53BP1 (1:300; #A300-272AT) was purchased from Bethyl Laboratories. […]

MB stem cells = assay: Medullosphere (tumor sphere) formation in serum-free stem cell media; conditions: D556Med cells
Description: Several research groups have posited the presence of tumor-initiating cells in MBs (Manoranjan, B. et al. Pediatr Res 71, 516-522, (2012)). Moreover, the tumor-initiating cells in general have not responded to radiation and chemotherapy drugs (Manoranj an, B. et al. Pediatr Res 71, 516-522, (2012)). Therefore, it was tested whether miR-584 may inhibit MB tumor-initiating cell proliferation. Consistent with the characteristics of tumor-initiating cells, MB cells cultured in serum-free stem cell media formed tumor spheres that were serially passaged for many cycles (FIG. 14A). Bar graphs show number and size of medullospheres obtained from D556Med cells transfected with miR-NC or miR-584-5p mimic. The p-value was calculated using a standard Student t-test. Error bars represent mean±SEM. […] The p-value was calculated using one-way ANOVA followed by Sidak's multiple-comparisons test. Error bars represent mean±SEM. These findings are highly significant because, this study is one of the first to propose a role for miR-584-5p and its target genes in regulating MB stem cell proliferation.

MB cells = assay: Annexin V-FITC FACS analysis of apoptosis; conditions: Annexin V staining
Description: To gain more insight into the tumor-suppressing and VCR-sensitizing activities of miR-584-5p, it was determined how the miR-584-5p mimic affected cell cycle progression of MB cells. […] Bar graphs show DNA histograms quantified using the FlowJo software. In FIG. 9A, the p-values were determined by two-way ANOVA followed by Tukey's multiple-comparisons test. Error bars represent mean±SEM. […] In FIG. 9B, the p-values were calculated using standard Student t-tests. Error bars represent mean±SEM. […] Next, it was determined whether miR-584-5p's effect on cell cycle progression may be mediated via its target genes eIF4E3/HDAC1. […] Bar graphs show dot plots quantified using the FlowJo software. Next, it was tested whether miR-584-5p-induced cell cycle arrest led to apoptosis of MB cells. […] In FIG. 8C, the bar graphs reflect DNA histograms quantified using the FlowJo software and in FIG. 8D and FIG. 9C, the bar graphs show dot plots quantified using the FlowJo software. The p-values for panels 8A-D and FIG. 9C were determined by two-way ANOVA followed by Tukey's multiple-comparisons test. Error bars represent mean±SEM. ****, p<0.0001; ***, p<0.001; **, p<0.01; *, p<0.05.
Flow cytometry analysis of cell cycle and apoptosis. […] Cells were analyzed using either FACScantoII or LSRII cytometers, and data were quantified using FlowJo 10.2 software.

In the case of “miR-584-5p: microRNA mimic; nucleotide sequence UUAUGGUUUGCCUGGGACUGAG (SEQ ID NO: 1); purchased from Thermofisher (chemistry not given here)”, the eIF4E1 levels (eIF4E1) is reported as “did not show any change”, the “levels of activated CHK1 and ATR, as well as BRCA1” value [1] is reported as “significantly lower levels” and the “number and size of medullospheres / MB stem cell proliferation” value (MB stem cells) is reported as “significantly smaller and fewer spheres”. For the same substance, the “apoptosis of MB cells” value (MB cells) was “increased apoptosis”.
